Article PMC9855884, “Glycosylated Lipopeptides—Synthesis and Evaluation of Antimicrobial Activity and Cytotoxicity” (Biomolecules, 2023)
Converted amounts (≈) assume the structure as drawn. Where a SMILES comes first, the peptide text is derived from it. The star is where a group is joined. βGlcNAc = CC(=O)N[C@@H]1[C@@H](O)[C@H](O)[C@@H](CO)O[C@H]1*; Stearoyl = CCCCCCCCCCCCCCCCCC(=O)*; Myristoyl = CCCCCCCCCCCCCC(=O)*

Experiments:
[1] = system: human red blood cells (RBCs); assay: Hemolysis assay; assay type: cell-based; conditions: human RBCs 4% (v/v) in PBS, 60 min, 37 °C, absorbance 540 nm, 1–512 µg/mL; triplicate
Procedure: The hemolysis assay was conducted using a procedure described previously. For this purpose, fresh human red blood cells (RBCs) with EDTA anticoagulant were washed three times with phosphate-buffer saline (PBS) using centrifugation at 800× g for 10 min and resuspended in PBS. Then, the stock solution of RBCs was added to serial dilution of peptides on 96-well polystyrene plates to reach a final volume of 100 µL with 4% concentration of erythrocytes (v/v) over the concentration range of 1–512 µg/mL of the tested compounds. The control wells for the 0% and 100% hemolysis consisted of RBCs suspended in PBS and 1% of Triton X–100, respectively. Subsequently, the plates were incubated for 60 min at 37 °C and then centrifuged at 800× g for 10 min at 4 °C (Sorvall ST 16R Centrifuge, Thermo Scientific, Osterode am Harz, Germany). After centrifugation, the supernatant was carefully […] to new microtiter plates and the release of hemoglobin was monitored through absorbance measurements at 540 nm (Multiskan™ GO Microplate Spectrophotometer, Thermo Scientific). All experiments were conducted in triplicate.
The lipopeptides were tested against human erythrocytes in order to evaluate their hemolytic activity. Moreover, selectivity indexes (SI) were calculated by dividing the HC50 by MIC. […] In some cases, glycosylation led to suppressed toxicity, e.g., a comparison of C14 peptides analogs: 1–3 and 10–12. On the other hand, an increase in toxicity of C18 analogs (7–9 vs. 16–18) was found for glycosylated USCLs. For this reason, SI was calculated to provide a correlation between antimicrobial activity and toxicity. […] Among gUSCLs: 10 and 11 with C14 fatty acid and 16–18 should be highlighted owing to their high selectivity against E. fecium and C. glabrata.

MTT assay, cytotoxicity = assay type: cell-based, human; conditions: human, HaCaT keratinocytes, 24 h incubation at 37 °C, 0.5–500 μg/mL, six replicates per concentration, repeated at least twice
Procedure: To evaluate the cytotoxicity of the test peptides (IC50), the classic MTT assay on 96-well plates was performed for human keratinocytes (HaCaT) which were acquired from the ATCC. The assay was based on colorimetric determination of the cell metabolic activity where the color intensity reflected the number of live cells that could be measured spectrophotometrically. The cell line was cultured in a Dulbecco’s modified Eagle Medium (Invitrogen) supplemented with 10% fetal bovine serum (v/v), 100 units/mL of penicillin, 100 μg/mL of streptomycin, and 2 mM L-glutamine and was kept at 37 °C in a humidified 5% CO2 incubator. Briefly, a day after plating of 500 cells per well, a series of concentrations (0.5–500 μg/mL) of the test compounds were applied. DMSO was added to the control cells at a final concentration of 1.0% (v/v), which was related to the maximum concentration of the solvent compounds used in the experiment. After 24 h of incubation at 37 °C (humidified 5% CO2 incubator) with the peptides, a medium containing 1 mg/mL of MTT was added to the wells up to a final concentration of 0.5 mg/mL. Subsequently, the plates were incubated at 37 °C for 4 h. Then, the medium was aspirated, and the formazan product was solubilized with DMSO. The background absorbance at 630 nm was subtracted from that at 570 nm for each well (Epoch, BioTek Instruments, Winooski, VT, USA). Six replicates were conducted for each concentration. All experiments were repeated at least twice and the resulting IC50 values were calculated with a GraFit 7 software (v. 7.0, Erithacus, Berkley, CA, USA).
The selectivity indexes were calculated for all the strains as IC50/MIC. According to IC50, in most cases, glycosylation caused only a slight decrease in toxicity. However, in contrast with SI calculated for HC50, the differences between USCLs and gUSCLs are not so distinct. […] Moreover, toxicity of USCLs and gUSCLs is high and exceeds their antimicrobial activity. The lipopetides were not selective against Gram-negative strains (K. pneumoniae, A. baumannii, P. aeruginosa, K. aerogenes) over human cells. A few USCLs were selective (SI > 1) against E. faecium and S. aureus with SI up to 1.87; and some gUSCLs were selective against E. faecium but not against S. aureus, with SI between 0.63 and 1.73. […] In this case, SI of gUSCLs was noticeably […] than that of corresponding parent USCLs (2.07, 1.99, 2.67 vs. 2.53, 2.36, 3.46, respectively). Selectivity indexes were plotted against adjusted retention time (Figures S15–S21). A moderate linear correlation was found in USCLs and K. pneumoniae, C. glabrata, and gUSCLs and K. pneumoniae, K. aerogenes (R^2 between 0.6064 and 0.6481). A relatively high linear correlation was obtained for USCLs and K. aerogenes (R^2 of 0.8214) and also for gUSCLs and C. glabrata (R^2 of 0.9223).

K. aerogenes ATCC 13048 = assay type: cell-based, Klebsiella aerogenes; conditions: ATCC 13048, 18 h
Procedure: The Acinetobacter baumannii ATCC BAA-1605, Enterococcus faecium ATCC 700221, Klebsiella aerogenes ATCC 13048, Klebsiella pneumoniae ATCC 700603, Pseudomonas aeruginosa ATCC 9027, Staphylococcus aureus ATCC 33591, Candida glabrata ATCC 15126, strains were acquired from the American Type Culture Collection (ATCC). All the strains were stored at −80 °C in Roti-Store cryo vials and were transferred into fresh Mueller–Hinton broth (MHB, Becton Dickinson, Warsaw, Poland) for bacteria or RPMI-1640 (Sigma-Aldrich, Steinheim, Germany) for fungi before the tests and incubated for 24 h at 37 °C. Then, the cultures were seeded on the Mueller–Hinton agar (BioMaxima, Lublin, Poland) or Sabouraud dextrose agar (SDA, BioMaxima, Lublin, Poland) plates, respectively, and incubated as just mentioned. These agar cultures were used for further microbiological assays. Cell densities for all assays were adjusted spectrophotometrically (Multiskan GO Microplate Spectrophotometer, Thermo Fisher Scientific, Vantaa, Finland) at 600 and 530 nm for bacteria and fungi, respectively.
The MICs were determined using a broth microdilution method according to the Clinical and Laboratory Standard Institute guidelines. For this purpose, initial inoculums of bacteria (5 × 10^5 CFU/mL) in MHB and yeasts (2 × 10^3 CFU/mL) in RPMI-1640 with 2% D-glucose were exposed to the ranging concentration of lipopeptides (1–512 μg/mL) and incubated at 37 °C for 18 h and 24 h, respectively. The experiments were conducted on 96-well microtiter polystyrene plates (Kartell, Italy). The growth was assessed visually after incubation and the MIC was assumed as the lowest peptide concentration at which a noticeable growth of microorganisms was inhibited. All experiments were conducted in triplicate.

## CCCCCCCCCCCCCC(=O)N[C@@H](CCCNC(=N)N)C(=O)N[C@@H](CO)C(=O)N[C@@H](CCCNC(=N)N)C(N)=O [Peptide 2, C14-RSR-NH2] (Myristoyl-Arg-Ser-Arg-NH2)
[1]
  HC50 (hemolytic activity): 186.64 ± 2.14 µg/mL
MTT assay, cytotoxicity
  IC50 at 24 h: 15 ± 2.05 µg/mL (≈ 23.9 µM)
K. aerogenes ATCC 13048
  MIC: 512 µg/mL (≈ 817 µM)

## CCCCCCCCCCCCCCCCCC(=O)N[C@@H](CO[C@@H]1O[C@H](CO)[C@@H](O)[C@H](O)[C@H]1NC(C)=O)C(=O)N[C@@H](CCCNC(=N)N)C(=O)N[C@@H](CCCNC(=N)N)C(N)=O [Peptide 16, C18-S(GlcNAc)RR-NH2] (Stearoyl-Ser(βGlcNAc)-Arg-Arg-NH2)
[1]
  HC50 (hemolytic activity): 77.45 ± 1.13 µg/mL
MTT assay, cytotoxicity
  IC50 at 24 h: 10.1 ± 0.66 µg/mL (≈ 11.4 µM)
K. aerogenes ATCC 13048
  MIC: 32 µg/mL (≈ 36.1 µM)
